Experimental data as given in PubChem BioAssay (NCI).
Several values for one entry are separate records, joined by “and”; a condition that tells them apart may be missing. Equal entries are not always repeated.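 The compound was tested at five concentrations on cells cultured in 96-well plates, with a 48-hour exposure period. GI50 = concentration required for 50% inhibition of growth. The concentration for full growth arrest is given as TGI.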 Where a SMILES comes first, the peptide text is derived from it. The star is where a group is joined. Cbz = O=C(OCc1ccccc1)*

What follows are compounds tested on SNB-19 CNS (assay: NCI anticancer screen, dose series, 48 h).

SMILES	TGI [µM]
COCn1cnc2c(=O)nc(SC)n(-c3ccccc3)c21	> 100

What follows are compounds tested on MALME-3M melanoma (assay: NCI anticancer screen, dose series, 48 h).

SMILES	TGI [µM]
COc1ccc(CNc2nc(NC3CCCCC3)nc(NC3CCCCC3)n2)cc1	64.2
CN(C)CCCNc1ccc2ncn3c4ccc(O)cc4c(=O)c1c23	16
S=C1NCCN1C(=S)Nc1ccccc1	> 100
CC1CC(Nc2ccc(Br)cc2)N(C(=O)c2ccc(Br)cc2)O1 (configuration not stated)	> 10
OC(C/C=N/N=C/CC(O)(C(F)(F)Cl)C(F)(F)Cl)(C(F)(F)Cl)C(F)(F)Cl	> 10
COc1cc2c(cc1O)NC(=O)[C@@H]1CCCN1C2=O	> 100
O=C1C=C(Nc2ccc(S(=O)(=O)Nc3nccs3)cc2)c2ccccc2C1=O	48.7
C=CC1(CC[C@]2(c3ccc(OC)c(OC)c3)C=[N+]([O-])O[C@H](O[C@@H]3CCCC[C@H]3C(C)(C)c3ccccc3)C2)OCC(C)(C)CO1	24.8
Oc1c(Br)ccc2cccnc12	> 64.4
O=c1[nH]c2nc3ccccc3c(=O)n2/c1=C/c1cccs1	> 100
CC(=O)SC(C[N+](=O)[O-])c1ccc2c(c1)OCO2 (configuration not stated)	15.8
Cc1ccc(CSC(N)=Nc2ccccc2)cc1C	34.2
C=C1CCCCCCCCC/C=C/1SCCCSC	> 100
NCCCN(CCCN)CCc1cn(C(=O)c2ccccc2)cn1	33.8
Cc1[nH]n(-c2nc(O)c(-c3ccccc3)c(=O)[nH]2)c(=O)c1CCO	> 100
CC(NC(=O)Cc1ccccc1)NC(=O)C(C)C(=O)NCc1ccccc1 (configuration not stated)	> 100
CCOC(=O)CCC(NC(=O)C(Cc1ccccc1)NC(=O)OCc1ccccc1)C(=O)OCC (stereo not drawn) (Cbz-Phe-Glu(OEt)-OEt; configuration not given here)	33.1
O=C1C(Br)=CC2(C=C1Br)CCNC1=C2C(=O)c2ncccc2C1=O	2.4

SMILES	TGI [µM]
CC(=O)OCC1OC(n2c(C)c(N=Nc3ccc(Cl)cc3)c(C)c(C#N)c2=S)C(OC(C)=O)C(OC(C)=O)C1OC(C)=O (configuration not stated)	> 100
CCCCC1Cc2cc(O)ccc2-c2nc3cc(O)ccc3n21 (configuration not stated) (tested in a mixture with another compound)	57.8
CC(=O)c1c(N=[N+]=[N-])c2cccc3c2n(c1=O)CCC3	27.6
Cn1nnnc1SC(F)(F)c1nc2ccccc2o1	> 100
CCCCCCCCCCCC(=O)OC[C@@H](C[As](=O)(O)O)OC(=O)CCCCCCCCCCC	8.84
C/C=C\C(CC(=O)NCC(=O)c1c[nH]c2ccccc12)CC(=O)OC (configuration not stated)	> 100
CC(=O)c1ccc2c(c1)C(=O)c1sc(C(C)=O)cc1C2=O	1.2
O=[N+]([O-])c1c(F)c(F)c2c(c1F)N(CCCCCl)c1ccccc1S2	31.4
Cc1ccnc2c1C(=O)C1=C(OC(C)(C)CC1O)C2=O (configuration not stated)	3.02
CN1CCc2c(sc3[nH]c(=S)[nH]c(=S)c23)C1	> 100
CCOC(=O)c1c(OCC)[nH]c(=O)c(C(c2cccs2)c2c(O)c(C(=O)OCC)c(OCC)[nH]c2=O)c1O	25.6
CC(=O)Nc1c(C(=N)C#N)ncn1CCO	> 100
O=P1(Cc2ccccc2)N(Cc2ccccc2)[C@@H]2CCCC[C@H]2N1Cc1ccccc1	32.4
CN1CCCOC(c2ccc(Cl)cc2)O1 (configuration not stated)	> 100
Cc1c2ccc3ccccc3c2c[n+]2ccccc12	3.77
O=C1/C(=C\c2cccc(Oc3ccccc3)c2)S(=O)(=O)C(c2ccccc2)N1c1cccc(Cl)c1 (configuration not stated)	> 100
N#Cc1cc2c(cc1Cl)Sc1nnc(Nc3ccccc3)n1S2(=O)=O	5
COCn1cnc2c(=O)nc(SC)n(-c3ccccc3)c21	> 100

The compounds below were run on MDA-MB-231 breast (assay: NCI anticancer screen, dose series, 48 h).

SMILES	TGI	GI50 [µM]
COc1ccc(CNc2nc(NC3CCCCC3)nc(NC3CCCCC3)n2)cc1	20.1 µM	–
CN(C)CCCNc1ccc2ncn3c4ccc(O)cc4c(=O)c1c23	21.7 µM	–
S=C1NCCN1C(=S)Nc1ccccc1	> 100 µM	–
CC1CC(Nc2ccc(Br)cc2)N(C(=O)c2ccc(Br)cc2)O1 (configuration not stated)	> 10 µM	–
OC(C/C=N/N=C/CC(O)(C(F)(F)Cl)C(F)(F)Cl)(C(F)(F)Cl)C(F)(F)Cl	> 10 µM	–
COc1cc2c(cc1O)NC(=O)[C@@H]1CCCN1C2=O	> 100 µM	–
O=C1C=C(Nc2ccc(S(=O)(=O)Nc3nccs3)cc2)c2ccccc2C1=O	71.3 µM	–
C=CC1(CC[C@]2(c3ccc(OC)c(OC)c3)C=[N+]([O-])O[C@H](O[C@@H]3CCCC[C@H]3C(C)(C)c3ccccc3)C2)OCC(C)(C)CO1	33.9 µM	–
Oc1c(Br)ccc2cccnc12	24.7 µM	–
O=c1[nH]c2nc3ccccc3c(=O)n2/c1=C/c1cccs1	> 100 µM	–
CC(=O)SC(C[N+](=O)[O-])c1ccc2c(c1)OCO2 (configuration not stated)	22.3 µM	–
Cc1ccc(CSC(N)=Nc2ccccc2)cc1C	33.6 µM	–
C=C1CCCCCCCCC/C=C/1SCCCSC	> 100 µM	–
NCCCN(CCCN)CCc1cn(C(=O)c2ccccc2)cn1	28.8 µM	–
Cc1[nH]n(-c2nc(O)c(-c3ccccc3)c(=O)[nH]2)c(=O)c1CCO	> 100 µM	–
CC(NC(=O)Cc1ccccc1)NC(=O)C(C)C(=O)NCc1ccccc1 (configuration not stated)	> 100 µM	–
CCOC(=O)CCC(NC(=O)C(Cc1ccccc1)NC(=O)OCc1ccccc1)C(=O)OCC (stereo not drawn) (Cbz-Phe-Glu(OEt)-OEt; configuration not given here)	29.5 µM	–
O=C1C(Br)=CC2(C=C1Br)CCNC1=C2C(=O)c2ncccc2C1=O	3.67 µM	–
CC(=O)OCC1OC(n2c(C)c(N=Nc3ccc(Cl)cc3)c(C)c(C#N)c2=S)C(OC(C)=O)C(OC(C)=O)C1OC(C)=O (configuration not stated)	> 100 µM	–

SMILES	TGI	GI50 [µM]
CCCCC1Cc2cc(O)ccc2-c2nc3cc(O)ccc3n21 (configuration not stated) (tested in a mixture with another compound)	31.3 µM	–
CC(NC(=O)c1c(O)[nH]c(=S)[nH]c1=O)c1ccc([N+](=O)[O-])cc1 (configuration not stated)	> 100 µM	–
CC(=O)c1c(N=[N+]=[N-])c2cccc3c2n(c1=O)CCC3	32.1 µM	–
Cn1nnnc1SC(F)(F)c1nc2ccccc2o1	> 100 µM	–
CCCCCCCCCCCC(=O)OC[C@@H](C[As](=O)(O)O)OC(=O)CCCCCCCCCCC	15.4 µM	–
C/C=C\C(CC(=O)NCC(=O)c1c[nH]c2ccccc12)CC(=O)OC (configuration not stated)	> 100 µM	–
CC(=O)c1ccc2c(c1)C(=O)c1sc(C(C)=O)cc1C2=O	3.75 µM and 7.75 µM	0.521
O=[N+]([O-])c1c(F)c(F)c2c(c1F)N(CCCCCl)c1ccccc1S2	21.9 µM	–
Cc1ccnc2c1C(=O)C1=C(OC(C)(C)CC1O)C2=O (configuration not stated)	15.4 µM	–
CN1CCc2c(sc3[nH]c(=S)[nH]c(=S)c23)C1	> 100 µM	–
CCOC(=O)c1c(OCC)[nH]c(=O)c(C(c2cccs2)c2c(O)c(C(=O)OCC)c(OCC)[nH]c2=O)c1O	30.1 µM	–
CC(=O)Nc1c(C(=N)C#N)ncn1CCO	> 100 µM	–
O=P1(Cc2ccccc2)N(Cc2ccccc2)[C@@H]2CCCC[C@H]2N1Cc1ccccc1	24.9 µM	–
CN1CCCOC(c2ccc(Cl)cc2)O1 (configuration not stated)	> 100 µM	–
Cc1c2ccc3ccccc3c2c[n+]2ccccc12	> 82.3 µM	–
O=C1/C(=C\c2cccc(Oc3ccccc3)c2)S(=O)(=O)C(c2ccccc2)N1c1cccc(Cl)c1 (configuration not stated)	> 100 µM	–
N#Cc1cc2c(cc1Cl)Sc1nnc(Nc3ccccc3)n1S2(=O)=O	4.7 µM	–
COCn1cnc2c(=O)nc(SC)n(-c3ccccc3)c21	> 100 µM	–

Each compound was assayed on TK-10 renal (assay: NCI anticancer screen, dose series, 48 h).

SMILES	TGI [µM]
COc1ccc(CNc2nc(NC3CCCCC3)nc(NC3CCCCC3)n2)cc1	> 100
CN(C)CCCNc1ccc2ncn3c4ccc(O)cc4c(=O)c1c23	19.8
S=C1NCCN1C(=S)Nc1ccccc1	> 100
CC1CC(Nc2ccc(Br)cc2)N(C(=O)c2ccc(Br)cc2)O1 (configuration not stated)	> 10
OC(C/C=N/N=C/CC(O)(C(F)(F)Cl)C(F)(F)Cl)(C(F)(F)Cl)C(F)(F)Cl	> 10
COc1cc2c(cc1O)NC(=O)[C@@H]1CCCN1C2=O	> 100
O=C1C=C(Nc2ccc(S(=O)(=O)Nc3nccs3)cc2)c2ccccc2C1=O	> 100
C=CC1(CC[C@]2(c3ccc(OC)c(OC)c3)C=[N+]([O-])O[C@H](O[C@@H]3CCCC[C@H]3C(C)(C)c3ccccc3)C2)OCC(C)(C)CO1	> 67.8
Oc1c(Br)ccc2cccnc12	> 100
O=c1[nH]c2nc3ccccc3c(=O)n2/c1=C/c1cccs1	> 100
CC(=O)SC(C[N+](=O)[O-])c1ccc2c(c1)OCO2 (configuration not stated)	28.2
Cc1ccc(CSC(N)=Nc2ccccc2)cc1C	86.7
C=C1CCCCCCCCC/C=C/1SCCCSC	> 100
NCCCN(CCCN)CCc1cn(C(=O)c2ccccc2)cn1	20.6
Cc1[nH]n(-c2nc(O)c(-c3ccccc3)c(=O)[nH]2)c(=O)c1CCO	> 100
CC(NC(=O)Cc1ccccc1)NC(=O)C(C)C(=O)NCc1ccccc1 (configuration not stated)	> 100
CCOC(=O)CCC(NC(=O)C(Cc1ccccc1)NC(=O)OCc1ccccc1)C(=O)OCC (stereo not drawn) (Cbz-Phe-Glu(OEt)-OEt; configuration not given here)	34.6
O=C1C(Br)=CC2(C=C1Br)CCNC1=C2C(=O)c2ncccc2C1=O	4.73
CC(=O)OCC1OC(n2c(C)c(N=Nc3ccc(Cl)cc3)c(C)c(C#N)c2=S)C(OC(C)=O)C(OC(C)=O)C1OC(C)=O (configuration not stated)	> 100

SMILES	TGI [µM]
CCCCC1Cc2cc(O)ccc2-c2nc3cc(O)ccc3n21 (configuration not stated) (tested in a mixture with another compound)	43.3
CC(NC(=O)c1c(O)[nH]c(=S)[nH]c1=O)c1ccc([N+](=O)[O-])cc1 (configuration not stated)	> 100
CC(=O)c1c(N=[N+]=[N-])c2cccc3c2n(c1=O)CCC3	59
Cn1nnnc1SC(F)(F)c1nc2ccccc2o1	> 100
CCCCCCCCCCCC(=O)OC[C@@H](C[As](=O)(O)O)OC(=O)CCCCCCCCCCC	25
C/C=C\C(CC(=O)NCC(=O)c1c[nH]c2ccccc12)CC(=O)OC (configuration not stated)	> 100
CC(=O)c1ccc2c(c1)C(=O)c1sc(C(C)=O)cc1C2=O	5.55
O=[N+]([O-])c1c(F)c(F)c2c(c1F)N(CCCCCl)c1ccccc1S2	32.5
Cc1ccnc2c1C(=O)C1=C(OC(C)(C)CC1O)C2=O (configuration not stated)	24.4
CN1CCc2c(sc3[nH]c(=S)[nH]c(=S)c23)C1	> 100
CCOC(=O)c1c(OCC)[nH]c(=O)c(C(c2cccs2)c2c(O)c(C(=O)OCC)c(OCC)[nH]c2=O)c1O	63.7
CC(=O)Nc1c(C(=N)C#N)ncn1CCO	> 100
O=P1(Cc2ccccc2)N(Cc2ccccc2)[C@@H]2CCCC[C@H]2N1Cc1ccccc1	26.7
CN1CCCOC(c2ccc(Cl)cc2)O1 (configuration not stated)	> 100
Cc1c2ccc3ccccc3c2c[n+]2ccccc12	> 100
O=C1/C(=C\c2cccc(Oc3ccccc3)c2)S(=O)(=O)C(c2ccccc2)N1c1cccc(Cl)c1 (configuration not stated)	> 100
N#Cc1cc2c(cc1Cl)Sc1nnc(Nc3ccccc3)n1S2(=O)=O	13.3
COCn1cnc2c(=O)nc(SC)n(-c3ccccc3)c21	> 100
